{"source": "patent US7498301B2", "about": "“Composition containing dipeptide of histidine and alanine for reducing uric acid and method for reducing uric acid using the dipeptide” (Lytone Enterprise, Inc., priority 2003, dated 2009)", "origin": "cited, not measured here", "key": {"[1]": {"system": "peptidase and proteases excreted from pancreas or other digestive organs"}, "[2]": {"conditions": "low pH (<3.0)"}}, "data": [{"smiles": "NCCC(=O)N[C@@H](Cc1cnc[nH]1)C(=O)O", "note": "[carnosine, β-alanyl-L-histidine]", "values": [{"measurement": "Digestion by peptidase and proteases", "setting": "[1]", "value": "resist against digestion"}, {"measurement": "Stability under low pH", "setting": "[2]", "value": "remain intact"}]}]}
